Measurements taken from patent publication US8658642B2 (Axikin Pharmaceuticals, Inc., priority 2009, dated 2014).

Molecular target: T1, CCR3 (Homo sapiens, UniProt P51677)
T1 sequence (P51677 1-355): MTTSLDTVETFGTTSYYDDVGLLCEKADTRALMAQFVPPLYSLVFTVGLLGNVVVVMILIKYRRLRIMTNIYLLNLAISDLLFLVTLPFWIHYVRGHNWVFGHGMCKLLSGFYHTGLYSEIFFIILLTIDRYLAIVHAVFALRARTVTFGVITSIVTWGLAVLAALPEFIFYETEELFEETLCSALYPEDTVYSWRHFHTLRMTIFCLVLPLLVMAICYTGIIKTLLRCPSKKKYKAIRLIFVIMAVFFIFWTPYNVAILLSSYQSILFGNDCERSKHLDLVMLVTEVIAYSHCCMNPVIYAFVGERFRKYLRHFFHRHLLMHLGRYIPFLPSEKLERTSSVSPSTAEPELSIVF
Assay: CCR3 receptor binding assay ([125I]-labeled human eotaxin/CCL11 displacement on cells)
Details: 0.1 nM [125I]-labeled human eotaxin/CCL11, 2×10^5 cells/well, 60 min at room temperature
Procedure: CCR3 Receptor Binding Assay
Cells were washed once with PBS and resuspended in a binding buffer (25 mM HEPES pH 7.6, 5 mM MgCl2, 1 mM CaCl2, 0.5% BSA, 0.1% NaN3). […] of cell suspension (2×10^5 cells/well) and 0.1 nM [^125I]-labeled human eotaxin/CCL11 (2000 Ci/mmol specific activity) were mixed in a 96-well U-bottom polypropylene plate, and incubated for 60 min at room temperature for the binding reaction. The cell suspension was then transferred to a filtration plate (#MAFB, Millipore), and washed 3 times with the binding buffer containing 0.5 M NaCl, scintillant added, and the radioactivity was counted on a TopCount (Packard). For the determination of non-specific binding, the cell suspension and [^125I]-labeled human eotaxin/CCL11 were incubated in the presence of 500 nM of unlabeled human eotaxin/CCL11. See, lino et al., “Molecular cloning and functional characterization of cynomolgus monkey (Macaca fascicularis) CC chemokine receptor, CCR3,” Cytokine 2002, 19, 276-286.

| SMILES | Ki [µM] |
| --- | --- |
| Cc1cc(C)cc(Oc2ccc(C#N)cc2S(=O)(=O)N2CCN(S(=O)(=O)CC34CCC(CC3=O)C4(C)C)CC2)c1 (stereo not shown) [Compound 51] | > 5 |
| Cc1cc(C)cc(Oc2ccc(C#N)cc2S(=O)(=O)N2CCN(S(C)(=O)=O)CC2)c1 [Compound 52, 4-(3,5-Dimethylphenoxy)-3-(4-(methylsulfonyl)piperazin-1-ylsulfonyl)benzonitrile] | > 5 |
| Cc1ccc(S(=O)(=O)N2CCN(S(=O)(=O)c3cc(C#N)ccc3Oc3cc(C)cc(C)c3)CC2)cc1 [Compound 53, 4-(3,5-Dimethylphenoxy)-3-(4-tosylpiperazin-1-ylsulfonyl)benzonitrile] | > 5 |
| Cc1cc(C)cc(Oc2ccc(C#N)cc2S(=O)(=O)N2CCN(C(=O)c3ccc(C(F)(F)F)cc3)CC2)c1 [Compound 54, 4-(3,5-Dimethylphenoxy)-3-(4-(4-(trifluoromethyl)benzoyl)piperazin-1-ylsulfonyl)benzonitrile] | > 5 |
| Cc1cc(C)cc(Oc2ccc(C#N)cc2S(=O)(=O)N2CCN(C(=O)c3ccccc3)CC2)c1 [Compound 55, 3-(4-Benzoylpiperazin-1-ylsulfonyl)-4-(3,5-dimethylphenoxy)benzonitrile] | > 5 |
| Cc1cc(C)cc(Oc2ccc(C#N)cc2S(=O)(=O)N2CCN(S(=O)(=O)CC(C)C)CC2)c1 [Compound 56, 4-(3,5-Dimethylphenoxy)-3-(4-(isobutylsulfonyl)piperazin-1-ylsulfonyl)benzonitrile] | > 5 |
| CCC(=O)N1CCN(S(=O)(=O)c2cc(C#N)ccc2Oc2cc(C)cc(C)c2)CC1 [Compound 57, 4-(3,5-dimethylphenoxy)-3-(4-propionylpiperazin-1-ylsulfonyl)benzonitrile] | 0.5 to 5 |
| Cc1cc(C)cc(Oc2ccc(C#N)cc2S(=O)(=O)N2CCN(C(=O)NC(C)C)CC2)c1 [Compound 58, 4-(5-cyano-2-(3,5-dimethylphenoxy)phenylsulfonyl)-N-isopropylpiperazine-1-carboxamide] | 0.05 to 0.5 |
| CCC(C)(C)C(=O)N1CCN(S(=O)(=O)c2cc(C#N)ccc2Oc2cc(C)cc(C)c2)CC1 [Compound 59, 3-(4-(2,2-Dimethylbutanoyl)piperazin-1-ylsulfonyl)-4-(3,5-dimethylphenoxy)benzonitrile] | > 5 |
| Cc1cc(C)cc(Oc2ccc(C#N)cc2S(=O)(=O)N2CCN(S(=O)(=O)c3ccc(C(F)(F)F)cc3)CC2)c1 [Compound 60, 4-(3,5-dimethylphenoxy)-3-(4-(4-(trifluoromethyl)phenylsulfonyl)piperazin-1-ylsulfonyl)benzonitrile] | > 5 |
| Cc1cc(C)cc(Oc2ccc(C#N)cc2S(=O)(=O)N2CCN(C(=O)Nc3cccc(F)c3)CC2)c1 [Compound 61, 4-(5-Cyano-2-(3,5-dimethylphenoxy)phenylsulfonyl)-N-(3-fluorophenyl)piperazine-1-carboxamide] | > 5 |
| CCc1ccc(NC(=O)N2CCN(S(=O)(=O)c3cc(C#N)ccc3Oc3cc(C)cc(C)c3)CC2)cc1 [Compound 62, 4-(5-Cyano-2-(3,5-dimethylphenoxy)phenylsulfonyl)-N-(4-ethylphenyl)piperazine-1-carboxamide] | > 5 |
| Cc1cc(C)cc(Oc2ccc(C#N)cc2S(=O)(=O)N2CCN(C(=O)C(C)(C)C)CC2)c1 [Compound 63, 4-(3,5-Dimethylphenoxy)-3-(4-pivaloylpiperazin-1-ylsulfonyl)benzonitrile] | > 5 |
| Cc1cc(C)cc(Oc2ccc(C#N)cc2S(=O)(=O)N2CCN(C(=O)C3CCC3)CC2)c1 [Compound 64, 3-(4-(Cyclobutanecarbonyl)piperazin-1-ylsulfonyl)-4-(3,5-dmethylphenoxy)benzonitrile] | > 5 |
| Cc1cc(C)cc(Oc2ccc(C#N)cc2S(=O)(=O)N2CCN(C(=O)C3CCCCC3)CC2)c1 [Compound 65, 3-(4-(Cyclohexanecarbonyl)piperazin-1-ylsulfonyl)-4-(3,5-dimethylphenoxy)benzonitrile] | > 5 |
| Cc1cc(C)cc(Oc2ccc(C#N)cc2S(=O)(=O)N2CCN(C(=O)CC(C)C)CC2)c1 [Compound 66, 4-(3,5-Dimethylphenoxy)-3-(4-(3-methylbutanoyl)piperazin-1-ylsulfonyl)benzonitrile] | > 5 |
| Cc1cc(C)cc(Oc2ccc(C#N)cc2S(=O)(=O)N2CCN(C(=O)CC(C)(C)C)CC2)c1 [Compound 67, 3-(4-(3,3-Dimethylbutanoyl)piperazin-1-ylsulfonyl)-4-(3,5-dimethylphenoxy)benzonitrile] | > 5 |

| SMILES | Ki [µM] |
| --- | --- |
| Cc1cc(C)cc(Oc2ccc(C#N)cc2S(=O)(=O)N2CCN(C(=O)C3CCCC3)CC2)c1 [Compound 68, 3-(4-(Cyclopentanecarbonyl)piperazin-1-ylsulfonyl)-4-(3,5-dimethylphenoxy)benzonitrile] | > 5 |
| N#Cc1ccc(Oc2cc(Cl)cc(Cl)c2)c(S(=O)(=O)N2CCN(C(=O)c3ccc(C(F)(F)F)cc3)CC2)c1 [Compound 69, 4-(3,5-Dichlorophenoxy)-3-(4-(4-(trifluoromethyl)benzoyl)piperazin-1-ylsulfonyl)benzonitrile] | > 5 |
| N#Cc1ccc(Oc2cc(Cl)cc(Cl)c2)c(S(=O)(=O)N2CCN(C(=O)c3ccccc3)CC2)c1 [Compound 70, 3-(4-Benzoylpiperazin-1-ylsulfonyl)-4-(3,5-dichlorophenoxy)benzonitrile] | ≤ 0.05 |
| CC(C)(C)CC(=O)N1CCN(S(=O)(=O)c2cc(C#N)ccc2Oc2cc(Cl)cc(Cl)c2)CC1 [Compound 71, 4-(3,5-Dichlorophenoxy)-3-(4-(3,3-dimethylbutanoyl)piperazin-1-ylsulfonyl)benzonitrile] | > 5 |
| CC(C)CC(=O)N1CCN(S(=O)(=O)c2cc(C#N)ccc2Oc2cc(Cl)cc(Cl)c2)CC1 [Compound 72, 4-(3,5-Dichlorophenoxy)-3-(4-(3-methylbutanoyl)piperazin-1-ylsulfonyl)benzonitrile] | 0.5 to 5 |
| N#Cc1ccc(Oc2cc(Cl)cc(Cl)c2)c(S(=O)(=O)N2CCN(C(=O)C3CCC3)CC2)c1 [Compound 73, 3-(4-(Cyclobutanecarbonyl)piperazin-1-ylsulfonyl)-4-(3,5-dichlorophenoxy)benzonitrile] | > 5 |
| N#Cc1ccc(Oc2cc(Cl)cc(Cl)c2)c(S(=O)(=O)N2CCN(C(=O)C3CCCC3)CC2)c1 [Compound 74, 3-(4-(Cyclopentanecarbonyl)piperazin-1-ylsulfonyl)-4-(3,5-dichlorophenoxy)benzonitrile] | > 5 |
| N#Cc1ccc(Oc2cc(Cl)cc(Cl)c2)c(S(=O)(=O)N2CCN(C(=O)Nc3cccc(F)c3)CC2)c1 [Compound 75, 4-(5-Cyano-2-(3,5-dichlorophenoxy)phenylsulfonyl)-N-(3-fluorophenyl)piperazine-1-carboxamide] | ≤ 0.05 |
| CS(=O)(=O)N1CCN(S(=O)(=O)c2cc(C#N)ccc2Oc2cc(Cl)cc(Cl)c2)CC1 [Compound 76, 4-(3,5-Dichlorophenoxy)-3-(4-(methylsulfonyl)piperazin-1-ylsulfonyl)benzonitrile] | ≤ 0.05 |
| Cc1ccc(S(=O)(=O)N2CCN(S(=O)(=O)c3cc(C#N)ccc3Oc3cc(Cl)cc(Cl)c3)CC2)cc1 [Compound 77, 4-(3,5-Dichlorophenoxy)-3-(4-tosylpiperazin-1-ylsulfonyl)benzonitrile] | ≤ 0.05 |
| N#Cc1ccc(Oc2cc(Cl)cc(Cl)c2)c(S(=O)(=O)N2CCN(C(=O)c3ccc(Cl)cc3)CC2)c1 [Compound 78, 3-(4-(4-Chlorobenzoyl)piperazin-1-ylsulfonyl)-4-(3,5-dichlorophenoxy)benzonitrile] | 0.05 to 0.5 |
| Cc1cccc(C(=O)N2CCN(S(=O)(=O)c3cc(C#N)ccc3Oc3cc(Cl)cc(Cl)c3)CC2)c1 [Compound 79, 4-(3,5-Dichlorophenoxy)-3-(4-(3-methylbenzoyl)piperazin-1-ylsulfonyl)benzonitrile] | ≤ 0.05 |
| CC(C)NC(=O)N1CCN(S(=O)(=O)c2cc(C#N)ccc2Oc2cc(Cl)cc(Cl)c2)CC1 [Compound 80, 4-(5-Cyano-2-(3,5-dichlorophenoxy)phenylsulfonyl)-N-isopropylpiperazine-1-carboxamide] | 0.5 to 5 |
| N#Cc1ccc(Oc2cc(Cl)cc(Cl)c2)c(S(=O)(=O)N2CCN(C(=O)c3cccc(Cl)c3)CC2)c1 [Compound 81, 3-(4-(3-Chlorobenzoyl)piperazin-1-ylsulfonyl)-4-(3,5-dichlorophenoxy)benzonitrile] | 0.5 to 5 |
| Cc1ccc(C(=O)N2CCN(S(=O)(=O)c3cc(C#N)ccc3Oc3cc(Cl)cc(Cl)c3)CC2)cc1 [Compound 82, 4-(3,5-Dichlorophenoxy)-3-(4-(4-methylbenzoyl)piperazin-1-ylsulfonyl)benzonitrile] | 0.5 to 5 |
| Cc1ccccc1C(=O)N1CCN(S(=O)(=O)c2cc(C#N)ccc2Oc2cc(Cl)cc(Cl)c2)CC1 [Compound 83, 4-(3,5-Dichlorophenoxy)-3-(4-(2-methylbenzoyl)piperazin-1-ylsulfonyl)benzonitrile] | 0.5 to 5 |
| N#Cc1ccc(Oc2cc(Cl)cc(Cl)c2)c(S(=O)(=O)N2CCN(C(=O)c3ccccc3Cl)CC2)c1 [Compound 84, 3-(4-(2-Chlorobenzoyl)piperazin-1-ylsulfonyl)-4-(3,5-dichlorophenoxy)benzonitrile] | 0.5 to 5 |
